Several values for one entry are separate records, joined by “and”; a condition that tells them apart may be missing. Identical values can stand only once. Like-named read-outs stand apart in the source and are kept apart here.
Legend:
in vitro [1] = conditions: mouse, microsomes, pH 7.4
Protocol: (§1) Microsomal incubations were carried out in 96-well plates in 5 aliquots of 30 μL each (one for each time point). […] In the control reactions, the NADPH-cofactor system was substituted with phosphate buffer. […] Five time points over 40 min were analyzed. The reactions were stopped by adding 5 volumes of acetonitrile with internal standard to incubation aliquots, followed by protein sedimentation by centrifuging at 4869 g for 5 min. Each reaction was performed in duplicates. Supernatants were analyzed using the HPLC system coupled with a tandem mass spectrometer. The elimination constant (kel), half-life (T1/2), and intrinsic clearance (Clint) were determined in a plot of ln(AUC) versus time, using linear regression analysis.

mice [2] = test: Hargreaves radiant heat test; type: in vivo, mouse; conditions: for Dose response, individual animals (FigS11a): test not printed on the sheet
mice [3] = test: Formalin test; type: in vivo, mouse; conditions: for formalin test response per time bin (Figure5c), individual animals: 0.2 mg/kg
Protocol: Thirty min after an i.p. injection of the compounds, mice received an intraplantar injection of a 20μL solution containing 2% formalin (Acros Organics) and we recorded the time mice spent licking/biting/guarding (nocifensive behaviors) the injected hindpaw over the next 60 min.

[4] = relative to 100 at 0 min
Protocol: (§2) The reactions were stopped by adding 240 μL 90% acetonitrile containing internal standard with subsequent plasma proteins sedimentation by centrifuging at 5796 g for 5 min. Supernatants were analyzed by the HPLC system coupled with a tandem mass spectrometer. The percentage of the test compounds remaining after incubation in plasma and their half-lives (T1/2) were calculated.

[5] = relative to 100 at 0 min; remark: listed apart in the source
Protocol: as §1

in vitro [6] = conditions: mouse, plasma
Protocol: as §2

mice [7] = test: Open field test; type: in vivo, mouse
Protocol: Thirty min after i.p. injection, mice were placed in the center of a round open-field (2 feet diameter) and their exploratory behavior recorded over the next 15 min. Distance traveled was used to represent open field behavior.

mice [8] = test: Body temperature by telemetric probe; type: in vivo, mouse; conditions: 0.2 mg/kg; for Body temperature (pre-injection = 100): individual animals, sheet Figure7a
Protocol: Body temperature (BT) was measured using a telemetric probe device (HD-X10; Data Science International). Briefly, under anesthesia, the probe device was placed in the mouse abdomen and a subcutaneous tunnel was created from the neck to the abdominal skin, through which a catheter (connected to the probe) was pulled and then inserted into the left carotid artery. Three weeks later, the implanted mice were singly housed in a cage that was placed on top of the DSI receiver (for probe signal detection). We monitored BT continuously over 2 h, in the following manner: 30 min (for baseline), 30 min after injection of the vehicle and then for 1 h after injection of the compound. Data were acquired using the Ponemah Telemetry acquisition software (DSI) and percent changes were presented relative to each mouse’s baseline.

mice [9] = test: CFA inflammatory pain model; type: in vivo, mouse
Protocol: The CFA model of chronic inflammation was induced as described previously. Briefly, CFA (Sigma) was diluted 1:1 with saline and vortexed for 30 min. When fully suspended, we injected 20 μL of CFA into one hindpaw. Heat thresholds were measured before the injection (baseline) and 3 days after the injection using the Hargreaves test.

hCB1 [10] = target: T1, hCB1 (Homo sapiens, UniProt P21554); test: DiscoverX PathHunter β-arrestin-2 recruitment; type: cell-based;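 note: CHO-K1 cells expressing hCB1, agonist mode, compound exposure with 1% vehicle, chemiluminescence read-out of the β-arrestin-2 recruitment signal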
T1 sequence (P21554 whole entry): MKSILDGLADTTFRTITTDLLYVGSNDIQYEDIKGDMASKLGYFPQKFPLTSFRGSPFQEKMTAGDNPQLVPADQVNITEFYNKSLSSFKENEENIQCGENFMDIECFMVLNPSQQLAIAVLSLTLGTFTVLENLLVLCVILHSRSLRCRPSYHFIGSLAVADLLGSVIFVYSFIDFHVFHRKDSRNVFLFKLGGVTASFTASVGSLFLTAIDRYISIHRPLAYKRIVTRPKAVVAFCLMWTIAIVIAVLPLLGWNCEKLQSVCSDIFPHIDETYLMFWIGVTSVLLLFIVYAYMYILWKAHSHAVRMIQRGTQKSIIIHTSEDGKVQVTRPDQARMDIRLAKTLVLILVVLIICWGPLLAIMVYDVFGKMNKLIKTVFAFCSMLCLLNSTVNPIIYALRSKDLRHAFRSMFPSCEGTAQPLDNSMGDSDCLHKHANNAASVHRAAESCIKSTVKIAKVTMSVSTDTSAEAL

hCB1 [11] = target: T1, hCB1; test: Cerep HTRF cAMP inhibition assay, hCB1 CHO-K1; type: cell-based; set-up: host or cells: HEK293SL cells, transient PEI transfection
Protocol: (§3) The hCB1/2 CHO-K1 cells (ATCC: CCL-61) are suspended in HBSS buffer (Invitrogen) complemented with 20 mM HEPES (pH 7.4), then distributed in microplates at a density of 5.103 cells/well in the presence of either of the following: HBSS (basal control), the reference agonist (stimulated control) or the test compounds. […] Following 30 min incubation at 37 °C, the cells are lysed, and the fluorescence acceptor (D2-labeled cAMP) and fluorescence donor (anti-cAMP antibody labeled with europium cryptate) are added. […] Each measurement was done in triplicate.

hCB2 = hCB2 (Homo sapiens, UniProt P34972); test: Cerep HTRF cAMP inhibition assay, hCB2 CHO-K1; type: cell-based; set-up: host or cells: HEK293SL cells, transient PEI transfection; conditions: for functional response, concentration-response point (FigS7d): replicate columns;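 for all read-outs here: compounds incubated 30 min at 37 °C with hCB2 CHO-K1 cells, cAMP detected by HTRF, HBSS as basal and reference agonist as stimulated control, run in triplicate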
hCB2, sequence (P34972 whole entry): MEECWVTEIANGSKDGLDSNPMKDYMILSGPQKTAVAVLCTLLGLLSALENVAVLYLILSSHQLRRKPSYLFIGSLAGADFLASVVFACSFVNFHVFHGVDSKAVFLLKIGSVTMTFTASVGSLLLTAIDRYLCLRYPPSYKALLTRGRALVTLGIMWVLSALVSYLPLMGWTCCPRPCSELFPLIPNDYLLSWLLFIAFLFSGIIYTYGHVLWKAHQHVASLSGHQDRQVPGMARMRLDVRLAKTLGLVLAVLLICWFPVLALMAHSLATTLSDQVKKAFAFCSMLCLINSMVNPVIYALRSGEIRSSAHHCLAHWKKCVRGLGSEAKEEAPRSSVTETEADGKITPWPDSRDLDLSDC
Protocol: as §3

In the case of `COC(=O)[C@@](C)(NC(=O)c1cc(C)n(-c2cccc(C(F)(F)F)c2)n1)c1cccs1` [‘1350], the remaining at 40 min, 2 µM (in vitro [1]) is reported as 100%, the “Dose response, individual animals (FigS11a)” value (shortened to “Dose response”) (mice [2]; Dose 0.05 mg/kg) is reported as 70.2102 and 59.9464 and 116.769 and 106.654 and 53.8477 and the “Dose response” value (mice [2]; Dose 0.1 mg/kg) is reported as 178.501 and 115.43 and 147.263 and 156.486. The “Dose response” value (mice [2]; Dose 0.2 mg/kg) was 166.452 and 178.501, the “lowest dose with significantly increased latency, Hargreaves” value (mice [2]; i.p., 30 min after injection) was 0.1 mg/kg and the “effect on formalin nocifensive behaviors” value (mice [3]; 0.2 mg/kg i.p., 60 min) was “profoundly decreased the duration of both phase 1 and phase 2 nocifensive behaviors”. For the same compound, the “formalin test response per time bin (Figure5c), individual animals” value (shortened to “formalin test response per time bin”) (mice [3]; Time 0 min) was 0, the “formalin test response per time bin” value (mice [3]; Time 5 min) was 47.9 and 64.7 and 87.7 and 92.8 and 88.1 and the “formalin test response per time bin” value (mice [3]; Time 10 min) was 0 (4×) and 6.3. The “formalin test response per time bin” value (mice [3]; Time 15 min) was 0 (3×) and 1.5 and 2.3, the “formalin test response per time bin” value (mice [3]; Time 20 min) was 2.9 and 0 (3×) and 3.6 and the “formalin test response per time bin” value (mice [3]; Time 25 min) was 1.9 and 13.6 and 0 (2×) and 21.9. The “formalin test response per time bin” value (mice [3]; Time 30 min) was 0 (2×) and 85 and 92.7 and 5.3, the “formalin test response per time bin” value (mice [3]; Time 35 min) was 1.8 and 59 and 0 (2×) and 91.5 and the “formalin test response per time bin” value (mice [3]; Time 40 min) was 2.3 and 173.3 and 5.2 and 106.7 and 40.7. The “formalin test response per time bin” value (mice [3]; Time 45 min) was 3.9 and 181.8 and 5.2 and 10 and 11.7, the “formalin test response per time bin” value (mice [3]; Time 50 min) was 8.3 and 48.5 and 11.2 and 3.8 and 50.2 and the “formalin test response per time bin” value (mice [3]; Time 55 min) was 40.3 and 35.4 and 0 (3×). For the same compound, the “formalin test response per time bin” value (mice [3]; Time 60 min) was 2.4 and 30.9 and 0 (3×), the “Stability time course, Mean (FigS10e)” value ([4]; Time 0 min) was 100 and the “Stability time course, Mean (FigS10e)” value ([4]; Time 20 min) was 84.0951. For the same compound, the “Stability time course, Mean (FigS10e)” value ([4]; Time 40 min) was 66.362, the “Stability time course, Mean (FigS10e)” value ([4]; Time 60 min) was 47.7148 and the “Stability time course, Mean (FigS10e)” value ([4]; Time 120 min) was 13.638. For the same compound, the “Stability time course, Mean (FS10f)” value ([5]; Time 0 min) was 100, the “Stability time course, Mean (FS10f)” value ([5]; Time 7 min) was 13.0354 and the “Stability time course, Mean (FS10f)” value ([5]; Time 15 min) was 0.461. For the same compound, the “Stability time course, Mean (FS10f)” value ([5]; Time 25 min) was 0.1608, the “Stability time course, Mean (FS10f)” value ([5]; Time 40 min) was 0.1274 and the half-life at 1 µM (in vitro [6]) was 41 min. For the same compound, the remaining at 20 min, 1 µM (in vitro [6]) was 84%, the remaining at 40 min, 1 µM (in vitro [6]) was 66% and the remaining at 1 h, 1 µM (in vitro [6]) was 48%. For the same compound, the remaining at 2 h, 1 µM (in vitro [6]) was 14%, the “open field locomotion (Figure6a), individual animals” value (mice [7]; Dose 0.2 mg/kg) was 12688.4 and 110206 and 39857.9 and 128163 and 83978.8 and the “open field locomotion (Figure6a), individual animals” value (mice [7]; Dose 0.5 mg/kg) was 61622.6 and 27571.5 and 19916.8 and 94738.4 and 50932.2. The “dose showing locomotor deficits, open field” value (mice [7]; i.p.) was 0.2 mg/kg, the hypothermia (mice [8]; vs baseline and vehicle) was “increased hypothermia compared to CP-55,940” and the “Body temperature (pre-injection = 100)” value (mice [8]; time 10) was 97.5 and 99.4 (2×). The “Body temperature (pre-injection = 100)” value (mice [8]; time 20) was 90.5 and 93.9 and 97, the “Body temperature (pre-injection = 100)” value (mice [8]; time 30) was 83.8 and 88.4 and 92.4 and the “Body temperature (pre-injection = 100)” value (mice [8]; time 40) was 79.1 and 83.4 and 87.4. For the same compound, the “Body temperature (pre-injection = 100)” value (mice [8]; time 50) was 78.7 and 80.2 and 84.2, the “Body temperature (pre-injection = 100)” value (mice [8]; time 60) was 79.9 and 78.4 and 83.6 and the “Body temperature (pre-injection = 100)” value (mice [8]; time 70) was 81.4 and 78.1 and 83.5. For the same compound, the “Body temperature (pre-injection = 100)” value (mice [8]; time 80) was 82.4 and 78.5 and 83.9, the “Body temperature (pre-injection = 100)” value (mice [8]; time 90) was 82.1 and 79.5 and 83.5 and the “effect on paw withdrawal latency after CFA” value (mice [9]; 0.2 mg/kg i.p.) was “increasing paw withdrawal latencies to well-above pre-CFA baseline thresholds”. The “CFA inflammatory pain response normalised to baseline (Figure5a), individual animals” value (mice [9]; 0.2 mg/kg, CFA-treated mice) was 134.669 and 178.501 and 55.3352 and 183.627 and 40.7039 and 122.724 and 119.
With `COC(=O)C(C)(NC(=O)c1cc(C)n(-c2cccc(C(F)(F)F)c2)n1)c1cccs1` (centres unmarked) [‘4042] the “DiscoverX ß-arrestin recruitment pEC50” value (hCB1 [10]) was 8.7 [8.3 – 9.6], the “response at log[M] -5 (FigS4f)” value (hCB1 [10]; log[M] = -5, individual replicates) was 61.1792 and 63.739 and the “response at log[M] -5.47712 (FigS4f)” value (hCB1 [10]; log[M] = -5.47712, individual replicates) was 59.4535 and 60.8053. For the same compound, the “response at log[M] -5.95424 (FigS4f)” value (hCB1 [10]; log[M] = -5.95424, individual replicates) was 62.531 and 63.2501, the “response at log[M] -6.43136 (FigS4f)” value (hCB1 [10]; log[M] = -6.43136, individual replicates) was 63.3939 and 54.9092 and the “response at log[M] -6.90849 (FigS4f)” value (hCB1 [10]; log[M] = -6.90849, individual replicates) was 60.9779 and 60. For the same compound, the “response at log[M] -7.38561 (FigS4f)” value (hCB1 [10]; log[M] = -7.38561, individual replicates) was 55.1393 and 55.8296, the “response at log[M] -7.86273 (FigS4f)” value (hCB1 [10]; log[M] = -7.86273, individual replicates) was 45.8781 and 43.2321 and the “response at log[M] -8.33985 (FigS4f)” value (hCB1 [10]; log[M] = -8.33985, individual replicates) was 34.3448 and 36.6457. For the same compound, the “response at log[M] -8.81697 (FigS4f)” value (hCB1 [10]; log[M] = -8.81697, individual replicates) was 21.5459 and 25.2274, the “response at log[M] -9.29409 (FigS4f)” value (hCB1 [10]; log[M] = -9.29409, individual replicates) was 9.61 and 9.437 and the EC50 (hCB1 [10]; read-out: DiscoverX ß-arrestin recruitment EC50) was 2.3 nM. The Emax (hCB1 [10]; read-out: DiscoverX ß-arrestin recruitment Emax) was 71%, the Emax (hCB1 [11]; CHO-K1) was 96% and the “Cerep cAMP pEC50” value (hCB1 [11]; hCB1) was 11.1. For the same compound, the Emax (hCB2; CHO-K1, hCB2) was 72%, the “functional response, concentration-response point (FigS7d)” value (shortened to “functional response”) (hCB2; Concentration [M] 1e-12) was 9.2 and 15.9 and 20.5 and the “functional response” value (hCB2; Concentration [M] 1e-11) was 54.5 and 33.7 and 39.7. For the same compound, the “functional response” value (hCB2; Concentration [M] 1e-10) was 72.4 and 68.7 and 74.5, the “functional response” value (hCB2; Concentration [M] 1e-9) was 87.6 and 76.3 and 78.1 and the “functional response” value (hCB2; Concentration [M] 1e-8) was 74.4 and 84.9 and 81.3. The “functional response” value (hCB2; Concentration [M] 1e-7) was 79.5 and 79.9 and 79.2, the “functional response” value (hCB2; Concentration [M] 1e-6) was 80.1 and 76.3 and 83.8 and the “Cerep cAMP pEC50” value (hCB2; hCB2) was 10.95 [10.7 – 11.6]. The EC50 (hCB2; hCB2) was 0.011 nM.
